Assay results taken from patent publication US20210153484A1, “Humanized Mouse Model” (The Wistar lnstitute, priority 2018, published 2021).
“Also recorded” adds a separate entry of the source.

Tests used:
human γ/δ+ T-cells = experiment: Human T γ/δ cells in reconstituted Hu-mice treated with HMBPP (IHC); assay type: in vivo, mouse; conditions: HMBPP 50 mg/kg i.p.
From the text: FIGS. 6A-6C illustrate the human immune subpopulation in spleen, thymus, lymph node, small intestines (SI) and lungs of humanized mice. […] Mouse SI and lungs show presence of IgA+ and IgE+ cells (left and right panels) as determined by mouse anti-human IgA or […] antibodies. Minimal staining of mouse cells was observed when the tissue sections were stained with anti-mouse specific antibodies (See FIG. 23). […] Mouse spleen (left panels; a), thymus (middle panels) and mesenteric lymph nodes (right panels) show presence of CD4+ (top panels) and CD8+ (bottom panels) T-cells as determined by IHC staining using anti-human CD4 or CD8 antibodies. […] Presence of T γ/δ cells were determined in a IHC staining by using mouse anti-human TcR γ/δ antibody.
Besides the presence of human CD45+ cells, the presence of monocytes/myeloid lineage cells HLA DR+, CD33+, CD15+, CD11b+ and CD14+ was observed (FIG. 5D). […] B-cells are fully functional, as antigen specific IgG were detected in circulating blood (see anti-hTERT response below), and IgA and IgE with unknown specificity in the mucosal layers of small intestines and the lungs (FIG. 6B, FIG. 23). Human CD4+ and CD8+ subpopulations of T-cells were detected in spleen, thymus and mesenteric lymph node tissues (FIG. 6C). […]

[1] = system: WM3629 [HLA-A3] melanoma cells; experiment: Anti-PD1 therapy in Hu-mice melanoma model, WM3629 tumors; assay type: in vivo, mouse; conditions: anti-PD1 10 mg/kg i.p. weekly
Procedure: (§1) FIGS. 8A-8H illustrate functional characterization of human immune cells in humanized mice. FIGS. 8A-8C show T- and B-cell response to hTERT vaccine. FIG. 8A is a schema for hTERT DNA vaccination. Hu-mice received a total of 3 injections of hTERT vaccine (hTERT DNA [50 μg; i.m] followed by electroporation) every 2 weeks and the mice were sacrificed 1 week after the last injection to determine T- and B-cell responses. […] Spleen cells from Hu-mice (n=3) were stimulated overnight (18 h) with pools of overlapping hTERT peptides (15 mer; 2 μg/ml/peptide) spanning the entire hTERT protein. Human IFNγ was detected in ELISPOT assay using a kit. […] Endpoint binding titer was determined in sera of hTERT vaccinated mice after 3 immunizations and compared to sera from NSG mice as controls. […] Tumor growth measurements are recorded using digital caliper by an independent researcher. […]
(§2) All animal experiments were performed according to protocols approved by the Wistar Institute's Institutional Animal Care and User Committee (IACUC). […] Six to 8 weeks (>50 days) later, presence of human immune cells was monitored by multi-color flow cytometry using 18 color BD LSR II Analyzer (BD Biosciences; Somasundaram et al. Nat. Commun. 2017, 8(1):607). […] Tumors were measured twice a week using digital calipers.

[2] = system: A375 [HLA-A2] melanoma cells; experiment: Anti-PD1 therapy in Hu-mice melanoma model, A375 tumors; assay type: in vivo, mouse; conditions: anti-PD1 10 mg/kg i.p. weekly
Procedure: as §1, §2

mast cells in tumor = experiment: Mast cell immunostaining of melanoma patients' tumors after anti-PD1 therapy; assay type: in vivo, human; conditions: compared to untreated individuals
Procedure: (§3) IHC staining was performed as previously described (Somasundaram et al 2017). Briefly, tissue sections were subjected to antigen retrieval by incubation with Target Retrieval Solution (Citrate [S1699] or Tris-EDTA buffers [S2367]; Agilent-DAKO, Santa Clara, Calif.) kit at 95° C. for 20 min and subsequently incubated with primary antibodies with optimum dilutions (FOXP3 [1:10]; CD4, HLA class I, HMB45 and mast cell tryptase [all at 1:100 dilution]; CD68, IgA and IgE [all at 1:400 dilution] and CD8 [1:500 dilution]. For detection of primary antibodies slides were incubated with anti-mouse, anti-rat or anti-rabbit antibodies at 1:1000 dilution and visualized by DAB (SK-4100) or AEC (SK-4200; both Vector Laboratories, Burlingame, Calif.) chromogens.

[3] = system: tumor-infiltrating immune cells; experiment: IHC, MassCyTOF and RNA-seq/CIBERSORT analysis of tumors from anti-PD1 treated Hu-mice; assay type: in vivo, mouse
Procedure: as §3
CyTOF staining was performed as previously described (Wang et al 2019). Briefly, carrier-free antibodies were commercially obtained and tagged with lanthanide metals using the Maxpar X8 metal conjugation kit from Fluidigm^R (201300, Ontario, Canada). Antigen retrieval was performed on deparaffinized tissue sections at 95° C. for 30 min in Tris/EDTA buffer, slides were cooled, blocked with 3% BSA-PBS solution and incubated with cocktail of antibodies (100 ul) overnight at 4° C. Next day slides were washed 3× with PBS and labeled with 1:400 dilution of Intercalator-Ir (Fluidigm 201192B) in PBS for 30 min at RT. Slides were washed with water (3×) and air dried for 30 mins before image mass cytometry acquisition using Fluidigm Hyperion Imaging System.
RNAseq was done using ScriptSeq RNA-seq library preparation kit (Illumina, [BHMR1205], San Diego, Calif.). Quality control of RNA and DNA library was done using the Tapestation 4200 and Bioanalyzer 2100 system (Agilent, Santa Clara, Calif.). Library quantification was done using the Kapa Library Quantification qPCR kit (Roche, [KK4854], Pleasanton, Calif.) and subjected to a 75 bp paired-end sequencing run on Illumina's NExtSeq 500 high output kit following the manufacturer's protocol. RNA-seq analysis was performed using RSEM v1.2.12 software and downstream expression analysis was done using Differential2 (Shuai Wu et al. Nature Commun. 2018; 9: 4166). RNA-seq data was used to enumerate tumor-infiltrating leukocytes using CIBERSORT, an analytical tool available online (cibersort.stanford.edu) (Chen et al. Methods Mol. Biol. 2018; 1711:243-259).
In order to understand the phenomenon of mixed therapy responses to anti-PD1 treatment, IHC, multiplexed imaging using MassCyTOF and RNA-seq was performed on tumors obtained from anti-PD1 treated Hu-mice and they were compared with control Ig treated mice. […]

451LU melanoma = experiment: Anti-PD1 therapy in Hu-mice melanoma model, aggressively growing 451LU tumors; assay type: in vivo, mouse
Procedure: All animal experiments were performed according to protocols approved by the Wistar Institute's Institutional Animal Care and User Committee (IACUC). NOD/LtSscidIL2Rγ^null (NSG) mice were inbred at The Wistar Institute under license from the Jackson Laboratory. For humanization, fetal liver and thymus were obtained from the same donor (18-22 weeks of gestation). NSG mice (6 to 8 weeks) received thymus graft (1 mm^3) in sub-renal capsule 24 h post myeloablation using Busulfan (30 mg/kg, i.p.; Sigma-Aldrich [B2635], St. Louis, Mo.). This is immediately followed by injection of autologous liver-derived CD34^+ hematopoietic stem cells (10^5 cells/mouse, i.v., FIG. 5A) that was magnetically sorted by microbeads conjugated with anti-human CD34 (Miltenyi Biotec., [130-046-703], Auburn, Calif.; Chen et al. Bio Protoc. (2013) 3(23)). Six to 8 weeks (>50 days) later, presence of human immune cells was monitored by multi-color flow cytometry using 18 color BD LSR II Analyzer (BD Biosciences; Somasundaram et al. Nat. Commun. 2017, 8(1):607). To accelerate human immune cell reconstitution mice received AAV8 encoding human IL-3, IL-7 and GM-CSF (FIG. 5; FIG. 20A; 10^8; iv; Wu, . . . Ertl., et al 2013). […] Tumors were measured twice a week using digital calipers.

[4] = compared to control IgG or non-reconstituted NSG mice treated with anti-PD1, listed as Anti-PD1 antibody
[5] = compared to control IgG or non-reconstituted NSG mice treated with anti-PD1, listed as anti-PD1 antibody

Molecule	human T γ/δ cells in tissues (human γ/δ+ T-cells)	tumor growth of WM3629 melanoma [1, 4]	tumor growth of WM3629 melanoma [1, 5]	tumor growth of A375 melanoma [2, 4]	tumor growth of A375 melanoma [2, 5]	mast cells in melanoma patients' tumor (mast cells in tumor)	immune (leukocyte) infiltration in tumor sections ([3]; H&E/IHC, compared to control IgG treated / untreated Hu-mice)	transcription of chemokine genes (CCL2, CCL3, CCL4, CCLS, CXCL9, CXCL10 and CXCL11) ([3]; RNA-seq of tumors after anti-PD1 treatment)	mast cell numbers in tumors (mast cell tryptase IHC) ([3]; compared to control Ig treated mice)	tumor resident mast cells / mast related genes by CIBERSORT of RNA-seq data ([3]; tumors from Hu-mice with and without anti-PD1)	immune infiltrating cells by IHC staining (451LU melanoma; 451Lu tumors in Hu-mice after anti-PD1)	tumor growth of 451LU melanoma (451LU melanoma; Hu-mice, aggressively growing metastatic melanoma)
C/C(=C\COP(=O)(O)OP(=O)(O)O)CO [HMBPP, hydroxy-2-methyl-2-butenyl 4-pyrophosphate]	further expanded											
anti-PD1: anti-PD-1 antibody (Keytruda, Merck, Rahway, N.J.)		restrict tumor growth	significantly restricted tumor growth	restrict tumor growth	significantly restricted tumor growth	increased presence of mast cells	Higher levels of immune infiltration; also recorded: dense leukocyte infiltration	higher transcription	increased numbers	higher presence of tumor resident mast cells; also recorded: higher expression of mast related genes	No immune infiltrating cells were detected	negligible effect on growth; also recorded: unable to restrict tumor growth
